According to patent publication US12440475B2, “Hodgkin lymphoma therapy” (priority 2016, dated 2025):

Key:
[1] = system: L1236-R100, L1236/DMSO and L1236; experiment: Viable cell count and IC50, three L1236 cell lines; type: cell-based; details: Homo sapiens, L-1236; all cell lines tested, including R100
Experimental: • (a) Five Hodgkin lymphoma cell lines (KMH2, HDML2, L540, L1236 and L426) were cultured separately in the presence of bendamustine, vorinostat and EDO-S101 dissolved in DMSO at 37° C. L1236-derived Hodgkin lymphoma cell lines were selected as they have an acquired stable resistance to bendamustine (R100) or an ability to display continuous growth upon extended exposure to sub-lethal concentrations of bendamustine (R25, R50 and R75). A detailed description of the L1236-R Hodgkin lymphoma cell lines is disclosed in De Filippi et al, ASH 2015, Abstract. #2479. In these tests, the L1236-100R bendamustine resistant strain was used. […] Control cells were cultured in the same final concentration of DMSO. The number of viable cells was assessed at 24, 48 and 72 hours through a Countess™ automated cell counter (Invitrogen), each experiment being repeated three times and the results given being the mean of the three results±SD.

L540 = experiment: Clonogenic survival in methylcellulose, L540; type: cell-based, human; details: any dose (0.1, 0.5, 1, 10 and 20 μmol)
Experimental: (§1) In all examples, the human Hodgkin lymphoma-derived cell lines L428, L428-c, KMH2, L591, L540, L1236, HDLM2 and SUP-HD were obtained from Dr Steffen Junker (Aarhus University Denmark). All cell lines were cultured in Gibco RPMI 1640 medium supplemented with Glutamax, 10% FBS and antibiotics at 37° C. […] The immunophenotype, P53 status and MSI characterization of the Hodgkin lymphoma cell lines was determined using anti-CD30, CD15, CD20 and CD14 antibodies.
(§2) This test was performed on four Hodgkin lymphoma cell lines (L428, L428s, KMH2 and L540). Each was cultured with EDO-S101 at doses of 0, 0.1, 0.5, 1, 10 and 20 μmol in DMSO. The cell lines were cultured in methylcellulose (Stem cell Technologies) at a concentration of 10^5/ml at 37° C. and 5% CO2. The surviving fraction was determined by measuring the viability of colonies generated before and after exposure. Only colonies with more than 50 cells were counted. Each data point represents the average and SD from three independent experiments performed in triplicate.

KMH2 = experiment: Clonogenic survival in methylcellulose, KMH2; type: cell-based, human; details: lowest doses (0.1 and 0.5 μmol)
Experimental: as §1, §2

CD14 cells = experiment: CD14-positive cells by flow cytometry in xenografted NSG mice; type: in vivo
Experimental: Cells were gated to exclude apoptotic or necrotic cells and sorted into CD30−/CD15− and CD30+ and CD15+/CD30+ fractions by gating on the lowest and highest 5% PE-expressing cells, respectively. Following sorting, the CD30−/CD15− cell fractions were analyzed using a FACScan flow cytometer (Becton Dickinson) and found to be more than 98% pure. For phenotypic analyses of cell lines or sorted cells, cells were prepared as described, and then stained with mouse anti-human CD30-phycoerthrin (PE), CD15—fluorescein isothyocyanate (FITC), CD14-APC-cyanine 7 (Cy7) and CD45-APC (all antibodies from BD PharMingen, San Diego, CA). […] Cells were subsequently analysed using a FACS LSRII (Becton Dickinson, Franklin Lakes, NJ). […]
Novel biomarkers CD68 and CD14 which are expressed by tumour associated macrophages and myeloid derived suppressor cells respectively in the microenvironment have recently been reported to affect the prognosis of Hodgkin lymphoma (Haematologica, 2011 February; 96(2): 186-189). The presence of the CD14-positive cells following administration of a single dose of EDO-S101 (60 mg/kg or 80 mg/kg) and after two administrations of EDO-S101 at 60 mg/kg was evaluated using flow cytometry with anti CD14 antibodies.

L428 cells = experiment: L428 xenograft in NSG mice, CD30 immunofluorescence of cytospin slides; type: in vivo; set-up: key to Spleen, red pulp activation, diffuse (CD30 staining score per animal) / Liver, Tumour cell infiltration (CD30 staining score per animal) / Bone marrow (CD30 staining score per animal): 0: without any staining; minimal, <1% staining; 2: mild, 1% staining; 3: moderate, <10% staining; marked, 10-40% staining; 5: severe, >40% of cells staining
Source text: Immunodeficient NOD-SCID-gammac−/− (NSG) mice aged 5 to 6 weeks were purchased from Charles River (NOD.Cg-Prkdcscid II2rgtm1Wjl/SzJ). The mice arrived two weeks before the beginning of the experiments and were housed in micro-isolator cages during the entire course of the study. Immediately prior to the injection of Hodgkin lymphoma cells, mice were exposed to 3 Gy gamma irradiation using an IBL637 ^137Cs irradiator at a dose rate of 0.61 Gy/min. From 10^3 to 10^6 cells, either from the original cell lines or following amplification, were injected intravenously via the retro-orbital sinus. The mice were sacrificed by cervical dislocation and different organs were analysed and tumoural infiltration examined using multiple techniques.
Two independent experiments were performed to investigate the dose-effect of EDO-S101 in NSG mice eight weeks after xenografting with L428 cells as in Example 8. The aim of the protocol shown in FIG. […]
The mice were sacrificed by cervical dislocation. The sampled organs consisted of the eyes (site of injection), liver, spleen and bone marrow. Following dissection of different organs, including tumours, the first portion was used for flow cytometry (FACS) and cytogenetic analyses while the second was fixed in 4% paraformaldehyde (PFA) for immunohistochemistry (IHC). To obtain a single cell suspension, the tissues were first cut into pieces. Thereafter, the cells were physically disaggregated using an 80 μm nylon cell strainer and filtered a second time through a 70 μm nylon cell strainer (BD Biosciences, Erembodegem, Belgium).
Cells were cytospun onto poly-L-lysine-coated glass slides at 700 rpm for 4 min, fixed with 10% formalin for 10 min, and treated with 0.25% Triton X-100 solution for 10 min. After blocking with 5% bovine serum albumin (Sigma), the cells were incubated with an anti-CD30 antibody (DAKO A/S, Glostrup, Denmark). Then, cells were treated with Cyanine 3 anti-mouse IgG (Invitrogen, Carlsbad, CA). As a negative control, staining was carried out in the absence of primary antibody. The L428-s cell line served as positive control.
Individual microscopic findings following immunofluorescence CD30 staining of cytopsin slides: “0”=without any staining; “1”=minimal, <1% staining; “2”=mild, 1% staining; “3”=moderate, <10% staining; “4”=marked, 10-40% staining; “5”=severe, >40% of cells staining.

## Cn1c(CCCCCCC(=O)NO)nc2cc(N(CCCl)CCCl)ccc21 [EDO-S101]
[1]
  IC50: 1000 to 3000 nM
L540
  clones observed (clonogenic survival): No clone was observed
KMH2
  clones observed (clonogenic survival): only a few clones
CD14 cells; 60 mg/kg, 80 mg/kg, 2×60 mg/kg
  frequency of CD14 cells, untreated versus treated mice: significantly higher frequency of CD14 cells in untreated mice compared to treated mice
CD14 cells; mouse, in vivo
  frequency of CD14 cells, 2×60 mg/kg versus 80 mg/kg: higher frequency following treatment with 2×60 mg/kg than treatment with a single dose of 80 mg/kg
L428 cells; 1*60 mg/kg
  Spleen, red pulp activation, diffuse (CD30 staining score per animal): 0
L428 cells; 1*60 mg/kg, 60 mg/kg
  Liver, Tumour cell infiltration (CD30 staining score per animal): 0
L428 cells; 1*80 mg/kg
  Liver, Tumour cell infiltration (CD30 staining score per animal): 0
  Spleen, red pulp activation, diffuse (CD30 staining score per animal): 0
L428 cells; 2*60 mg/kg, 60 mg/kg
  Bone marrow (CD30 staining score per animal): 0
  Liver, Tumour cell infiltration (CD30 staining score per animal): 0
  Spleen, red pulp activation, diffuse (CD30 staining score per animal): 0
L428 cells; single dose of 80 mg/kg
  tumour cells in organs (liver, spleen, bone marrow): No tumour cells were observed in any organs
